Assay results published in article PMC12844124, “Synthesis and Study of Substituted Chalcones Combined with Fluoroazobenzenes—New Photoswitches for Application in Biological Systems” (Molecules, 2026).

Tests used:
[1] = Changes over time of Z to E transition by 19F NMR; format: physicochemical; conditions: light 505 nm, 100 mM in DMSO
Text: We can observe that for electromagnetic radiation in the range of wavelengths 390 nm to 610 nm, transitions from E to Z of about 0–76% are obtained. The best results for all compounds are in visible wavelengths 505 nm or 525 nm (30.59–75.44%). From analyzing Figure 2 we can draw the following conclusions: all synthesized compounds undergo switching under visible light (this is important because UV radiation can damage the DNA of cells, inhibiting replication and, as a result, preventing cell division). For the 2,6-difluoro substituents (17i), (17j), (17k), and (17l) with values of 74.84%, 73.2%, 74.39%, and 75.44%, respectively, the largest share of the Z configuration is at (525 nm) and, for the rest of (17a), (17b), (17c), (17e), (17f), and (17g), it is in range of 30.57–47.13% at 505 nm. […] Multiple cycles of photoreversible switching under alternating green and blue light irradiation, with no significant photobleaching or degradation, confirmed the repeatable and robust photochromic conversion of the synthesized azobenzenes (Figure 2b). Then we measured changes over time (transitions from Z to E, upon irradiation with 505 nm for (17a–17c) and (17e–17g), and 525 nm for (17i–17l) compounds (Figure 3, and see Section S4.3 in Supplementary Materials).

[2] = UV–VIS spectra of E/Z isomers in DMSO; format: physicochemical; conditions: for Δ λmax n→π*: between E and Z isomers
Experimental: For this purpose, the UV–VIS spectra were measured for all synthesized hybrids (17a–17l) at concentrations from 20 to 500 µM in dimethyl sulfoxide (DMSO) in light at λ 505 nm and for (17a–17c), (17e–17g), and (17i–17l) at λ 525 nm, respectively, as detailed in Table 1 (see Section S4.4 in Supplementary Materials).

PC-3 cells [3] = assay: MTS cell proliferation assay, PC-3; format: cell-based, human
Experimental: Human BJ fibroblasts (American Type Cell Culture Collection, Manassas, VA, USA, CRL-2522) and human prostate cancer cell line PC-3 (American Type Cell Culture Collection, Manassas, VA, USA, CRL-1435), derived from bone metastases, were routinely grown in […]) Medium (ThermoFisher, Waltham, MA, USA, 21127-022) and supplemented with heat-inactivated 10% Fetal Bovine Serum (Biowest, France, […]) and 1% antibiotic solution (Biowest, Nuaillé, France, L0022), in a humidified 5% CO2 atmosphere at 37 °C. Cells were used between 3 and 20 passages. The 96-well plates were prepared by seeding 5 × 10^3 or 2.5 × 10^3 cells per well, for 24 and 48 h treatments, respectively, with at least five technical and two biological repeats. […] The cells were treated with either the Z conformer of 17j, with continuous illumination with 525 nm light, or the E conformer. The Z conformer was prepared by illuminating its DMSO solution with 525 nm light overnight. The cell proliferation was analyzed with CellTiter Aqueous One Solution Cell Proliferation MTS (3-(4,5-dimethylthiazol-2-yl)-5-(3-carboxymethoxyphenyl)-2-(4-sulfophenyl)-2H-tetrazolium) Assay (Promega, Madison, WI, USA, G5430) after 24 or 48 h of treatment. The absorbance was measured at 490 and 670 nm with FLUOStar Omega plate reader (BMG LABTECH GmbH, Ortenberg, Germany). The statistical analysis was performed within R 4.5.1 project. […] The log-logistic four parametric model (4PL), with the lower limit boundary set to 0 and group fitting, was used, as available in the drc package, to fit cell proliferation data. […] The assessment metrics for model goodness of fit were performed with functions available in the drc package and with custom ones. When appropriate, the delta method was applied to obtain error of central tendency. To assess the goodness of fit for each of the biological replicates, deviance R^2 (DR^2) was calculated and assessed. […] The DR^2 was calculated according to the following Equation: 1 - (Dres/Dnull), where Dres-residual deviance and Dnull-null deviance (deviance of the model with mean as a predicted value). The null hypothesis was assessed with the two-way ANOVA with Tukey's post hoc test for multiple comparisons or with the two-way t-test when only two groups were compared. The differences in the cell cycle percentages were assessed with the two-way ANOVA with Tukey's post hoc test.

PC-3 cells [4] = assay: Cell cycle analysis by flow cytometry, PC-3; format: cell-based, human; conditions: 24 h
Experimental: The BJ or PC-3 cells were treated as described previously, with the exception that 0.15 × 10^6 cells per well were seeded in 6-well plates. After 24 h of treatment, cells were harvested by trypsinization (Biowest, Nuaillé, France, L0931), washed twice, resuspended in PBS, and added to cold 70% ethanol for overnight fixation at −20 °C. Subsequently, cells were centrifuged and resuspended in PBS containing 5 µg/mL of propidium iodide in PBS (Sigma-Aldrich, St. Louis, MO, USA, 4170), 0.1% Triton X-100, and 10 µg/mL of DNAse-free RNAse (A&A Biotechnology, Gdansk, Poland, 1006-10) in the dark for 4 h at 37 °C. FACS analysis was performed using a FACSCanto II flow cytometer and FACSDiva, version 9.0 software (BD Biosciences, San Jose, CA, USA). Flow rate was set to about 1000 events/cells per second. Signals from at least 10,000 events per sample were captured. The percentages of PC-3 cells in cell cycle phases (G0/G1, S, and G2/M) were determined using ModFit LT 4.1.7 (Verity Software House, Topsham, ME, USA).

COc1ccc(/C=C/C(=O)c2cccc(/N=N/c3ccc(F)cc3)c2)cc1OC [Compound 17a]
Z isomer, changes over time ([1]; 0 h): 32.44% | Z isomer, changes over time ([1]; 1 h): 31.33% | Z isomer, changes over time ([1]; 2 h): 30.37% | Z isomer, changes over time ([1]; 3 h): 29.4% | Z isomer, changes over time ([1]; 4 h): 28.74% | Z isomer, changes over time ([1]; 5 h): 27.66% | Z isomer, changes over time ([1]; 6 h): 26.82% | Z isomer, changes over time ([1]; 7 h): 26.38% | Z isomer, changes over time ([1]; 8 h): 26.02% | Δ (Z to E change 0 h to 8 h) [1]: 6.42%

COc1cc(/C=C/C(=O)c2cccc(/N=N/c3ccc(F)cc3)c2)cc(OC)c1 [Compound 17b]
Z isomer, changes over time ([1]; 0 h): 32.38% | Z isomer, changes over time ([1]; 1 h): 32.21% | Z isomer, changes over time ([1]; 2 h): 30.2% | Z isomer, changes over time ([1]; 3 h): 29.69% | Z isomer, changes over time ([1]; 4 h): 28.37% | Z isomer, changes over time ([1]; 5 h): 26.74% | Z isomer, changes over time ([1]; 6 h): 25.21% | Z isomer, changes over time ([1]; 7 h): 24.74% | Z isomer, changes over time ([1]; 8 h): 24.03% | Δ (Z to E change 0 h to 8 h) [1]: 8.35% | εmax (n→π*) ([2]; E isomer): 688 dm^3·mol^−1·cm^−1 | λmax n→π* (E) ([2]; E isomer): 442.1 nm | εmax (n→π*) ([2]; Z isomer): 898 dm^3·mol^−1·cm^−1 | λmax n→π* (Z) ([2]; Z isomer): 434.0 nm | Δ λmax n→π* [2]: 8.1 nm

COc1cc(/C=C/C(=O)c2cccc(/N=N/c3ccc(F)cc3)c2)cc(OC)c1OC [Compound 17c]
Z isomer, changes over time ([1]; 0 h): 30.59% | Z isomer, changes over time ([1]; 1 h): 30.16% | Z isomer, changes over time ([1]; 2 h): 28.28% | Z isomer, changes over time ([1]; 3 h): 27.14% | Z isomer, changes over time ([1]; 4 h): 25.95% | Z isomer, changes over time ([1]; 5 h): 25.61% | Z isomer, changes over time ([1]; 6 h): 25.18% | Z isomer, changes over time ([1]; 7 h): 24.05% | Z isomer, changes over time ([1]; 8 h): 23.17% | Δ (Z to E change 0 h to 8 h) [1]: 7.42%

COc1ccc(/C=C/C(=O)c2cccc(/N=N/c3ccc(F)cc3F)c2)cc1OC [Compound 17e]
Z isomer, changes over time ([1]; 0 h): 46.84% | Z isomer, changes over time ([1]; 1 h): 45.35% | Z isomer, changes over time ([1]; 2 h): 45.18% | Z isomer, changes over time ([1]; 3 h): 44.16% | Z isomer, changes over time ([1]; 4 h): 43.55% | Z isomer, changes over time ([1]; 5 h): 43.39% | Z isomer, changes over time ([1]; 6 h): 43.01% | Z isomer, changes over time ([1]; 7 h): 42.31% | Z isomer, changes over time ([1]; 8 h): 42.17% | Δ (Z to E change 0 h to 8 h) [1]: 4.67%

COc1cc(/C=C/C(=O)c2cccc(/N=N/c3ccc(F)cc3F)c2)cc(OC)c1 [Compound 17f]
Z isomer, changes over time ([1]; 0 h): 47.13% | Z isomer, changes over time ([1]; 1 h): 46.61% | Z isomer, changes over time ([1]; 2 h): 45.77% | Z isomer, changes over time ([1]; 3 h): 44.72% | Z isomer, changes over time ([1]; 4 h): 44.28% | Z isomer, changes over time ([1]; 5 h): 43.95% | Z isomer, changes over time ([1]; 6 h): 43.3% | Z isomer, changes over time ([1]; 7 h): 42.6% | Z isomer, changes over time ([1]; 8 h): 41.87% | Δ (Z to E change 0 h to 8 h) [1]: 5.26% | εmax (n→π*) ([2]; E isomer): 872 dm^3·mol^−1·cm^−1 | λmax n→π* (E) ([2]; E isomer): 441.9 nm | εmax (n→π*) ([2]; Z isomer): 1150 dm^3·mol^−1·cm^−1 | λmax n→π* (Z) ([2]; Z isomer): 427.9 nm | Δ λmax n→π* [2]: 14.0 nm

COc1cc(/C=C/C(=O)c2cccc(/N=N/c3ccc(F)cc3F)c2)cc(OC)c1OC [Compound 17g]
Z isomer, changes over time ([1]; 0 h): 44.82% | Z isomer, changes over time ([1]; 1 h): 43.69% | Z isomer, changes over time ([1]; 2 h): 42.89% | Z isomer, changes over time ([1]; 3 h): 42.36% | Z isomer, changes over time ([1]; 4 h): 41.25% | Z isomer, changes over time ([1]; 5 h): 40.61% | Z isomer, changes over time ([1]; 6 h): 40.5% | Z isomer, changes over time ([1]; 7 h): 39.88% | Z isomer, changes over time ([1]; 8 h): 38.78% | Δ (Z to E change 0 h to 8 h) [1]: 6.04%

COc1cc2c(c(OC)c1OC)-c1ccc(OC)c(=O)cc1[C@@H](NC(C)=O)CC2 [colchicine, reference compound]
normalized asymptote (PC-3 cells [3]; 24 h treatment): 63.8 ± 6.2% | normalized asymptote (PC-3 cells [3]; 48 h treatment): 51.3 ± 5.7% | percentage of cells in the G2/M phase (PC-3 cells [4]; 20 nM): 15.7% | percentage of cells in the G2/M phase (PC-3 cells [4]; 60 nM): 54.2%
